# Reference: ChEMBL document CHEMBL1201862, “PubChem BioAssay data set” (2004)
# Active and inactive are the calls of the source.
# Legend:
# [1] = biological target: T1, Ubiquitin-conjugating enzyme E2 N (Homo sapiens, UniProt P61088); format: functional;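 note: Dose-response confirmation in a TR-FRET assay detecting UBC13-driven polyubiquitin chain formation, inhibition measured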
# T1 sequence (P61088 whole entry): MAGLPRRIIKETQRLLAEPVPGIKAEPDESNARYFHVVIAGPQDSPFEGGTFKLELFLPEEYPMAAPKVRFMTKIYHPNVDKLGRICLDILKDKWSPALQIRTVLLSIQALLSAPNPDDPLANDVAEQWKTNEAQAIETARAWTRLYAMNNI
# Aminopeptidase N = biological target: T2, Aminopeptidase N (Plasmodium falciparum FcB1/Columbia, UniProt O96935); experiment: P. falciparum M1AAP inhibitors, biochemical, fluorogenic H-Leu-NHMec substrate, 1536-well (AID 1445); design: species or system Plasmodium falciparum 3D7, 3D7
# T2 sequence (O96935 whole entry): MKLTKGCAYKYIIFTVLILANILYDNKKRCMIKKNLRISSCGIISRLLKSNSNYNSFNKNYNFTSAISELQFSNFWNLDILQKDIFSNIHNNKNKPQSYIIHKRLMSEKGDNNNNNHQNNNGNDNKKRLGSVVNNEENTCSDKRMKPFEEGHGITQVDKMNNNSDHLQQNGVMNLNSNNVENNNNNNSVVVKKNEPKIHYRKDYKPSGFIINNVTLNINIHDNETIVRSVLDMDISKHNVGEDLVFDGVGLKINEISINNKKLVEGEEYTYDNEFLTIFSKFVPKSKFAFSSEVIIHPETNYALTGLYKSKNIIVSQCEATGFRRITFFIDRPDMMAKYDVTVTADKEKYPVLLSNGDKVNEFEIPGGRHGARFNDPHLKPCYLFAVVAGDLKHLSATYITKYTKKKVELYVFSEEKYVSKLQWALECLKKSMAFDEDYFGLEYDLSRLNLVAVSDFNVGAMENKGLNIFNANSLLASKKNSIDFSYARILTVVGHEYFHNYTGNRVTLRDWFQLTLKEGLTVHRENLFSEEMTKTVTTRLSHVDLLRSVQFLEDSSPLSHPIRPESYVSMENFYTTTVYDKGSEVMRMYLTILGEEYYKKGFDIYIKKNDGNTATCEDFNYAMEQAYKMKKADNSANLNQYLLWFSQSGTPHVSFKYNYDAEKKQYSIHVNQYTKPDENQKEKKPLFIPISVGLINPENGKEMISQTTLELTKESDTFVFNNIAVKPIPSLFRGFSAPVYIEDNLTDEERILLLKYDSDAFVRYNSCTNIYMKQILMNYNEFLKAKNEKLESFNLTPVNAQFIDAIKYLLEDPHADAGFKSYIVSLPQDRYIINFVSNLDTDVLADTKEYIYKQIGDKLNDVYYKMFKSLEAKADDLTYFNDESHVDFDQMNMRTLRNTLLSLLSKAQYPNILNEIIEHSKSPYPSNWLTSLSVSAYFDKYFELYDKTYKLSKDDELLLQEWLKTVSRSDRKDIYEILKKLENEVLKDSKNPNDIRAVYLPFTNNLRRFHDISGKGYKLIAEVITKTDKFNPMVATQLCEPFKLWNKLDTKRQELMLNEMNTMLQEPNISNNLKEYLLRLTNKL
# Cytochrome P450 2D6 = Cytochrome P450 2D6 (Homo sapiens, UniProt P10635);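 note: CYP2D6 member of a cytochrome P450 panel assay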
# Cytochrome P450 2C9 = Cytochrome P450 2C9 (Homo sapiens, UniProt P11712)
# [2] = microbe, parasite or virus in culture; format: functional; details: Mycobacterium tuberculosis
# [3] = NIH-3T3 fibroblast cytotoxicity, dose response, cytotoxicity control, cell-based, fluorescence, Alamar Blue, secondary assay (AID 2327); format: functional;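 note: NIH-3T3 mouse fibroblasts cultured with fluconazole at 8 µg/mL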
# [4] = C. albicans growth with fluconazole, confirmation, fluorescence, retest (AID 2467); format: functional, cell-based
# [5] = biological target: Peroxisome proliferator-activated receptor gamma/Nuclear receptor coactivator 2 (Homo sapiens, UniProt P37231); experiment: (§1) TR-FRET dose response biochemical High Throughput Screening assay for agonists of the steroid receptor coactivator 2 (SRC-2) recruitment by the peroxisome proliferator-activated receptor gamma (PPAR gamma): non-selective agonists. [Related pubchem assays: 1297, 1032 ]; format: functional
# [6] = biological target: Peroxisome proliferator-activated receptor gamma/Nuclear receptor coactivator 3 (Homo sapiens, UniProt P37231); experiment: as §1, with “3 (SRC-3)” for “2 (SRC-2)”, “1301 (Confirmation screen.), 1048 (Primary screen.)]” for “1297, 1032 ]”; format: functional
# [7] = biological target: Peroxisome proliferator-activated receptor gamma/Nuclear receptor coactivator 1 (Homo sapiens, UniProt P37231); experiment: as §1, with “1 (SRC-1)” for “2 (SRC-2)”, “assays (depositor defined):AID1300, AID1808, AID504735, AID631]” for “assays: 1297, 1032 ]”; format: protein assay
# Cytochrome P450 2C19 = Cytochrome P450 2C19 (Homo sapiens, UniProt P33261); experiment: Cytochrome panel assay with activity outcomes. Panel member name: p450-cyp2c19 Compounds with AC50 equal or less than 10 uM are considered active; format: functional; details: read-out: AC50
# H9c2 = experiment: cells; format: functional, cell-based; details: Rattus norvegicus, H9c2, Myocardium;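 note: confirmatory concentration-response retest of ultra-high-throughput screening hits for modulation of myocardial damage; cell death induced by hydrogen peroxide oxidative stress; compound pretreatment for 60 min then peroxide exposure for 2 h; potency is for protecting the cells against peroxide damage rather than for killing them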
# [8] = biological target: T3, Polyadenylate-binding protein 1 (Homo sapiens, UniProt P11940); experiment: PABP1 MLLE–PAM2 interaction inhibitors, dose response, miRNA deadenylation inhibitor project, biochemical, fluorescence polarization, Cy5-PAM2 peptide, secondary (AID 602260); format: functional; details: read-out: IC50_Mean
# [9] = biological target: T3, Polyadenylate-binding protein 1; experiment: PABP1 MLLE–PAM2 binding inhibitor potency, dose response, biochemical, fluorescence polarization, FITC-PAM2 peptide (AID 602259); format: functional; details: read-out: IC50_Mean
# Nonstructural protein 1 = Nonstructural protein 1 (Influenza A virus, UniProt Q194T2); format: functional, Influenza A virus (A/California/07/2009(H1N1))
# [10] = growth suppression of beta-catenin-knockout colon cells, dose response, cell-based, HCT116, human colon tumor (AID 1045); format: functional;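 note: HCT116 colon tumor cells with beta catenin knocked out; cells exposed to compound for 60 hours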
# [11] = growth suppression of PTEN-null colon cells, dose response, cell-based, HCT116 PTEN knockout (AID 1047); format: functional;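 note: HCT116 colon tumor cells with PTEN knocked out; cells exposed to compound for 60 hours before readout; potency for loss of cell viability measured by luminescence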
# [12] = biological target: T4, DNA repair protein RAD52 homolog (Homo sapiens, UniProt P43351); format: functional, biochemical
# T4 sequence (P43351 whole entry): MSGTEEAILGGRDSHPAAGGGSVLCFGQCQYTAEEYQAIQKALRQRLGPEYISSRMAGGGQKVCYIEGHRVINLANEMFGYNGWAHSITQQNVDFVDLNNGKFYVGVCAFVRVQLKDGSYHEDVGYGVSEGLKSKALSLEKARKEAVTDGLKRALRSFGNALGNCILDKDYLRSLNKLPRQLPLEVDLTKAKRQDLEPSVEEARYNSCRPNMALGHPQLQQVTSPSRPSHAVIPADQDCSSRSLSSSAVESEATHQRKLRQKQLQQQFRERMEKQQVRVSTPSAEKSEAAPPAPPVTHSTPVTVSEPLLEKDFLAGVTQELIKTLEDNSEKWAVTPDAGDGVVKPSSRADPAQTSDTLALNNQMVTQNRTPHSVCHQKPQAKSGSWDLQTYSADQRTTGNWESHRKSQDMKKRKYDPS
# [13] = HepG2 cell cytotoxicity, dose response, cytotoxicity control for Shn3 inhibitor project, CellTiter-Glo, cherry-picked (AID 624134); format: functional, cell-based
# [14] = Shn3 3'UTR reporter inhibitors, dose response, cell-based, Clone20 osteoblasts, firefly luciferase, cherry-picked (AID 624132); format: functional;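 note: firefly luciferase luminescence from reporter carrying the Shn3 3'UTR in osteoblasts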
# [15] = control 3'UTR Renilla luciferase suppression, dose response, counter-screen for Shn3 inhibitor project, cell-based, Clone20-Shn3RL, cherry-picked (AID 624133); format: functional
# [16] = inhibitors of HIV Env-driven cell fusion, dose response, cherry-pick (AID 652057); format: functional, cell-based
# Paired box protein Pax-8 = Paired box protein Pax-8 (Homo sapiens, UniProt Q06710); experiment: inhibitors of PAX8-driven TPO luciferase reporter, dose response, RMG-I cells, cherry-pick (AID 687027); format: functional, cell-based;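 note: luciferase reporter driven by Pax8 target thyroperoxidase promoter measured by SteadyGlo luminescence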
# [17] = inhibitors of clade B AD8 Env fusion, dose response, cell-based, cherry-pick (AID 652062); format: functional;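 note: luciferase signal from cell-cell fusion driven by HIV-1 clade B AD8 Env; potency is for inhibitors of fusion seen as a drop in luminescence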
# [18] = ZM109 Env clade C HIV-1 fusion inhibitors, dose response, HeLa effector, CEM target cells, luciferase, cherry-pick (AID 652058); format: functional, cell-based
# Sequence of Cytochrome P450 2C9 (P11712 whole entry): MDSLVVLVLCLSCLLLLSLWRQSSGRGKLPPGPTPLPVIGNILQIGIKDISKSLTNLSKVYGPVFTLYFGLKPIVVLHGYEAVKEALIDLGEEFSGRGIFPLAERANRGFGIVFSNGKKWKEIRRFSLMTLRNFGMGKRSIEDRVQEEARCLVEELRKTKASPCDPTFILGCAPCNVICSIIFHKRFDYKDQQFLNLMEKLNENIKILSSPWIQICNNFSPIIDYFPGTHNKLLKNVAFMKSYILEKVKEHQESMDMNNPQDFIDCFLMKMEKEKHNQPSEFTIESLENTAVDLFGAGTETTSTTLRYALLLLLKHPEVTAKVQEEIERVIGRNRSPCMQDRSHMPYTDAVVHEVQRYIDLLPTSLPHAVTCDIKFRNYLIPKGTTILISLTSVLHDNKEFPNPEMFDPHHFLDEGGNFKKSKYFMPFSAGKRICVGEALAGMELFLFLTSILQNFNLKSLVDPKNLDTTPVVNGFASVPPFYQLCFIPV
# Sequence of Peroxisome proliferator-activated receptor gamma/Nuclear receptor coactivator 2 (P37231 whole entry): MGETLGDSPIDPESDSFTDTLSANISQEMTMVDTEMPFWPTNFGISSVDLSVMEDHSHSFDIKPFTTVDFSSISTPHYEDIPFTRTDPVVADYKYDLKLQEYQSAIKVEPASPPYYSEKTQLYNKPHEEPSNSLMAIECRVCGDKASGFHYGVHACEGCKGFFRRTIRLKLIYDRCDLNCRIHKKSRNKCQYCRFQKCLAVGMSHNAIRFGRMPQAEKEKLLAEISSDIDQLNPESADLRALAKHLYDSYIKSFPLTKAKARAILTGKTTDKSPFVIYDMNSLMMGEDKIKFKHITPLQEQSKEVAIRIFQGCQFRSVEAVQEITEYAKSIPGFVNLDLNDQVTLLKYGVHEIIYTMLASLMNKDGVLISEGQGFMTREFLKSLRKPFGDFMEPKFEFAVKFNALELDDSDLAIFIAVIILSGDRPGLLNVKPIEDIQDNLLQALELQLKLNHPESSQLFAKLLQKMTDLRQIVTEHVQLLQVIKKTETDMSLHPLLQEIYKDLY
# Sequence of Peroxisome proliferator-activated receptor gamma/Nuclear receptor coactivator 2 (Q15596 whole entry, further chain): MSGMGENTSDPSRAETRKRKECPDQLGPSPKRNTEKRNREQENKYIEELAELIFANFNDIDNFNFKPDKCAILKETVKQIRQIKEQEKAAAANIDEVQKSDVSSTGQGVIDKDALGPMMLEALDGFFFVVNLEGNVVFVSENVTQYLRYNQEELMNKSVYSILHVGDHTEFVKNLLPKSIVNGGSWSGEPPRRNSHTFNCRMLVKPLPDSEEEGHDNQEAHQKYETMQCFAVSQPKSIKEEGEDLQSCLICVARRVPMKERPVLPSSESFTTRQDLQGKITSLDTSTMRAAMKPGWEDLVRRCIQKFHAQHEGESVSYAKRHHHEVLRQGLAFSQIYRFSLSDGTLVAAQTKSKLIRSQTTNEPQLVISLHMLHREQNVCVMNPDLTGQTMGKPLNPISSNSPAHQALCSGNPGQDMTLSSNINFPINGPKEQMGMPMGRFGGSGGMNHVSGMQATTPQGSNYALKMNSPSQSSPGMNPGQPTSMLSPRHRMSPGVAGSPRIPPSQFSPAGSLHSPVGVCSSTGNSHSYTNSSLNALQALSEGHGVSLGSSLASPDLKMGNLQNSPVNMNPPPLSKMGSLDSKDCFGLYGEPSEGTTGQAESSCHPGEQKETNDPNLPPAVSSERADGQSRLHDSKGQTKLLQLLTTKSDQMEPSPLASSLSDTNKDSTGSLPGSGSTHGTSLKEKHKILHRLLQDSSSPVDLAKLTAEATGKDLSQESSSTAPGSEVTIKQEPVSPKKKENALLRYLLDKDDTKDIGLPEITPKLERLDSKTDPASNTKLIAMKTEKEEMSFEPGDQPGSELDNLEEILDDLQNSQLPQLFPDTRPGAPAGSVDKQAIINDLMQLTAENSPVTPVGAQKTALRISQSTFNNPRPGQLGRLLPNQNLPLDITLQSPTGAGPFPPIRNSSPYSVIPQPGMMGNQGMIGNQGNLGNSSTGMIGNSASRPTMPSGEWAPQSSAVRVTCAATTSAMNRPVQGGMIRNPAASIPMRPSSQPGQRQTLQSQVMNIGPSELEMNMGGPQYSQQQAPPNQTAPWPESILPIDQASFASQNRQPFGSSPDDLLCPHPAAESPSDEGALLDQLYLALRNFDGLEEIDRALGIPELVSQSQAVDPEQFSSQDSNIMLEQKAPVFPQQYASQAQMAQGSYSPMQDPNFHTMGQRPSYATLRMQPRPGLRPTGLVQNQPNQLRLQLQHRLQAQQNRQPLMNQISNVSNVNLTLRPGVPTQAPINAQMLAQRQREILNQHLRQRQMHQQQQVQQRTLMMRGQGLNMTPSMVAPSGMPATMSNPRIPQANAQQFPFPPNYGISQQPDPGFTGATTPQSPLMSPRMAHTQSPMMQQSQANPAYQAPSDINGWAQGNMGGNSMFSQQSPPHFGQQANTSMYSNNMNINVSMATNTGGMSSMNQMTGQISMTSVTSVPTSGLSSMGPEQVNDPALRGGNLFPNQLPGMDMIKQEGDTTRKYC
# Sequence of Peroxisome proliferator-activated receptor gamma/Nuclear receptor coactivator 3 (P37231 whole entry): as the sequence (P37231 whole entry) above
# Sequence of Peroxisome proliferator-activated receptor gamma/Nuclear receptor coactivator 3 (Q9Y6Q9 whole entry, further chain): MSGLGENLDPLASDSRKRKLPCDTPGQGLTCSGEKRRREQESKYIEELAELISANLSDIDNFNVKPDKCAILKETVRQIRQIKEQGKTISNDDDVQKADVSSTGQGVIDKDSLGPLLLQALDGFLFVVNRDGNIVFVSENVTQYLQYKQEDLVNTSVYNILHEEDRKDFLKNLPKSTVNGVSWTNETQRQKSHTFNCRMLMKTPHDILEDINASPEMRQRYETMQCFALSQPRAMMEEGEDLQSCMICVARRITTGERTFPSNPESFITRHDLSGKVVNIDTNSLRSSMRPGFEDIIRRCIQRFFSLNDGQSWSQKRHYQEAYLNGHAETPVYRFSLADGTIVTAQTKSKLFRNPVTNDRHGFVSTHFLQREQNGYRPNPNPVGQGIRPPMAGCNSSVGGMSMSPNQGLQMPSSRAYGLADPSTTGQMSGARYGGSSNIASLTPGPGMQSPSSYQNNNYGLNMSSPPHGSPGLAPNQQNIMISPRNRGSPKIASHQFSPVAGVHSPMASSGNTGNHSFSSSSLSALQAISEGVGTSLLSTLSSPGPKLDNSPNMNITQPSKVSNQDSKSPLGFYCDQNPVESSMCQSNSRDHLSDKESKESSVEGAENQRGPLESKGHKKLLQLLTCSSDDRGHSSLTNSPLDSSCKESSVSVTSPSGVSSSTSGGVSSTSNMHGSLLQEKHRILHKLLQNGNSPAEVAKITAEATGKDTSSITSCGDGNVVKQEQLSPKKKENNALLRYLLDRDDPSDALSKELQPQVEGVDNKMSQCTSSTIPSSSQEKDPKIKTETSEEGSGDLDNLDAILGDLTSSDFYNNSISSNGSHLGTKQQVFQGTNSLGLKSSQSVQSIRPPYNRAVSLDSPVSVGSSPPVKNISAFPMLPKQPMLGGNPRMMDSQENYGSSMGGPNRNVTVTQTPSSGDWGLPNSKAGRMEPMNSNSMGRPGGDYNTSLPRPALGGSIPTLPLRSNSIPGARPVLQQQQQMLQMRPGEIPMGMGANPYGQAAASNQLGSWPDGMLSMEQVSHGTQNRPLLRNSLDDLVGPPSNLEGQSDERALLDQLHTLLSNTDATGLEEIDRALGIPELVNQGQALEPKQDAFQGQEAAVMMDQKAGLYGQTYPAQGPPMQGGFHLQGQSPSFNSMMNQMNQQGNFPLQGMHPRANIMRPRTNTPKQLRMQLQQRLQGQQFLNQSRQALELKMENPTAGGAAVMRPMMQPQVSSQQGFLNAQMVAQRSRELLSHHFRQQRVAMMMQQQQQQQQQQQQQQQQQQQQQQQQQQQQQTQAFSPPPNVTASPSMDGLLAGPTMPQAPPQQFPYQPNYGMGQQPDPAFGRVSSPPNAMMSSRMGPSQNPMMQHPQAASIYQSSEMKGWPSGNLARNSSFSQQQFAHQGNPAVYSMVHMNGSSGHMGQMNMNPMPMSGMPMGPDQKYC
# Sequence of Nonstructural protein 1 (Q194T2 whole entry): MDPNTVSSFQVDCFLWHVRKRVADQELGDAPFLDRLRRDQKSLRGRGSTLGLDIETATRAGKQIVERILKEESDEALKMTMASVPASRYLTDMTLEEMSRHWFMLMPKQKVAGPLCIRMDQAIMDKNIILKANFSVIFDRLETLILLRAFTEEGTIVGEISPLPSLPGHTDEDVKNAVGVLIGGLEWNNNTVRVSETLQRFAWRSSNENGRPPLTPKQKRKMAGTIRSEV
# Sequence of Paired box protein Pax-8 (Q06710 whole entry, the tested form may be a part): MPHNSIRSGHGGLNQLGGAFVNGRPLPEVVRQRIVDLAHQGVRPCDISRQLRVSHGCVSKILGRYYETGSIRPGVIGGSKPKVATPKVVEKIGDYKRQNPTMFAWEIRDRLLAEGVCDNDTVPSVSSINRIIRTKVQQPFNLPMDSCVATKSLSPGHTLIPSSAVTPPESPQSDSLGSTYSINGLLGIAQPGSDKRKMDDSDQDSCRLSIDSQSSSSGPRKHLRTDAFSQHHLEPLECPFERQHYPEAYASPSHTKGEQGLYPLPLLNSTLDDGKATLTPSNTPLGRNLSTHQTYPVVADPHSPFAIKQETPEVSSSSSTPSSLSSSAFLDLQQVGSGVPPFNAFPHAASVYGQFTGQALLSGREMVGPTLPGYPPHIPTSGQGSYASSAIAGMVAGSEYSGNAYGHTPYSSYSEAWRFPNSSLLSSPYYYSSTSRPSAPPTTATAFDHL
structure (smiles),measurement,setting,value
C#CCOCCOCCOCCNc1nc(N2CCOCC2)nc(N2CCN(C(=O)CCCCCCCCCCNC(=O)[C@@H]([C@H](C)CC)n3cc(CCCCCN)nn3)CC2)n1,IC50,[1],> 20 µM (inactive)
Cc1nnc(NC(=O)c2ccc3ccccc3n2)s1,IC50,Aminopeptidase N,36.8 µM (active)
Cc1ccc(OCCCn2c(=O)sc3ccccc32)cc1,AC50,Cytochrome P450 2D6,14.1 µM (inconclusive)
same,AC50,Cytochrome P450 2C9,inconclusive
CC(=O)Nc1ccc(S(=O)(=O)Nc2nc3ccccc3nc2Nc2ccccc2)cc1,IC50,Aminopeptidase N,94.9 µM (active)
Cc1c(Cc2ccccc2)c(=O)oc2c(CN(C)C)c(O)c(Cl)cc12,IC50,Aminopeptidase N,33 µM (active)
C[C@@H]1CCCCCCCCC(=O)OCCN[C@H](C)CCCCCCCCC(=O)OCCN[C@H](C)CCCCCCCCC(=O)OCCN1,CC50,[2],26.5 µM (active)
same,IC50,[1],> 20 µM (inactive)
CC(C)c1ccc(OCC(=O)Nc2cccc(C(=O)Nc3ccccc3C(=O)O)c2)cc1,EC50,[3],16.9 µM (inconclusive)
same,EC50,[4],1.9 µM (active)
COc1ccc(CNC(=O)CSc2cc(=O)n(C)c3ccccc23)cc1,EC50,[5],> 79.4 µM (not active)
same,EC50,[6],> 79.4 µM (not active)
same,EC50,[7],> 79.4 µM (inactive)
O=C(Nc1ccc(N=Nc2ccccc2)cc1)c1ccc(Cl)cc1Cl,AC50,Cytochrome P450 2C19,39.8 µM (inconclusive)
same,AC50,Cytochrome P450 2C9,inconclusive
CCOc1ccc(C(C(=O)NCC2CCCO2)N(C(=O)c2snc(C(N)=O)c2N)c2ccccc2F)cc1 (stereo unspecified),IC50,H9c2,> 79 µM (inactive)
same,IC50,[1],> 20 µM (inactive)
CC(=O)Oc1ccc2c(C)c(CC(C)O)c(=O)oc2c1 (stereo unspecified),IC50,Aminopeptidase N,62.4 µM (active)
CCN(CC)S(=O)(=O)c1ccc(C(=O)NCc2ccc3c(c2)cc(C)n3C)cc1,IC50,[8],> 66 µM (inactive)
same,EC50,[5],6.71 µM (active)
same,IC50,[9],> 66 µM (inactive)
same,EC50,[6],15.3 µM (not active)
same,EC50,[7],6.6 µM (active)
CCSC1=NC(=O)/C(=C2/C=Cc3ccccc3N2CC)S1,IC50,Nonstructural protein 1,9.25 µM (active)
COc1ccc(OC)c(-n2c(CN3CCC(C(N)=O)CC3)nc3ccccc3c2=O)c1,EC50,[3],> 150 µM (inactive)
same,EC50,[4],3.29 µM (active)
O=C1Nc2ccccc2S/C1=C/NCc1ccccc1Cl,IC50,Aminopeptidase N,5.63 µM (active)
CC1=CC=CN2CC(O)CN=C12.Cl (stereo unspecified),AC50,Cytochrome P450 2C9,inconclusive
O=C(COc1cc(F)ccc1[N+](=O)[O-])Nc1ccc(N2CCCCC2)cc1,IC50,Nonstructural protein 1,21.3 µM (active)
COCCCn1c(=S)[nH]c2sc3c(c2c1=O)CCCS3,EC50,[5],26.7 µM (not active)
same,EC50,[6],> 79.4 µM (not active)
same,EC50,[7],66.8 µM (inactive)
O=C(C[n+]1ccccc1)NN=Cc1cc(Br)ccc1O,IC50,Nonstructural protein 1,2.96 µM (active)
O=C(Cc1ccccc1)Nc1nnc(-c2ccco2)s1,EC50,[5],> 79.4 µM (not active)
same,EC50,[6],> 79.4 µM (not active)
same,EC50,[7],> 79.4 µM (inactive)
CCCOC(=O)/C(=C\c1ccc([N+](=O)[O-])o1)NC(=O)c1ccccc1,EC50,[3],> 160 µM (inactive)
same,CC50,[2],35.1 µM (active)
same,EC50,[4],0.174 µM (active)
O=C(CN1C(=O)C2C3CC(C(Br)C3Br)C2C1=O)Nc1ccc(C(=O)O)cc1 (stereo unspecified),IC50,Aminopeptidase N,62.5 µM (active)
CN1CCN(Cc2nc3ccccc3c(=O)n2Cc2nc(-c3ccc([N+](=O)[O-])cc3)cs2)CC1,EC50,[10],7.87 µM (active)
same,EC50,[11],4.88 µM (active)
same,IC50,[1],> 20 µM (inactive)
COc1ccc(C2=NN(C(=N)S)C(c3ccccc3)C2)cc1 (stereo unspecified),EC50,[5],8.07 µM (active)
same,EC50,[6],> 79.4 µM (not active)
same,EC50,[7],8.24 µM (active)
CCCS(=O)(=O)Nc1ccc(Nc2c3ccccc3nc3ccccc23)c(OC)c1,AC50,[12],3.15 µM (active)
same,AC50,[13],20.1 µM (active)
same,AC50,[14],3.39 µM (active)
same,AC50,[15],1.03 µM (active)
CCN(CC)CCNC(=O)c1nn(-c2ccc(Cl)cc2)c2c1CCc1cc(OC)ccc1-2,AC50,[12],16.8 µM (active)
C/N=C(\C[N+](=O)[O-])NCCSCc1ccc(CN(C)C)o1,AC50,[12],12.5 µM (active)
CC(C)CC#Cc1ccc2c(c1)O[C@H](CN(C)S(=O)(=O)c1ccc(F)cc1)[C@H](C)CN([C@@H](C)CO)S2(=O)=O,AC50,[16],26.6 µM (active)
same,AC50,Paired box protein Pax-8,9.6 µM (active)
same,AC50,[17],23.7 µM (active)
same,AC50,[18],20.8 µM (active)
CC(C)NC(=O)Nc1ccc2c(c1)CC(=O)N([C@H](C)CO)C[C@H](C)[C@H](CN(C)S(=O)(=O)c1ccccc1)O2,AC50,[16],8.61 µM (active)
same,AC50,[17],35.9 µM (active)
same,AC50,[18],10.7 µM (active)
O=C(N/N=C/c1ccc(Cl)cc1Cl)Nc1ccccc1,EC50,[3],> 160 µM (inactive)
same,EC50,[4],> 38 µM (not active)
